Results: patent publication US20260116921A1, “PEPTIDE INHIBITORS OF INTERLEUKIN-23 RECEPTOR AND THEIR USE TO TREAT INFLAMMATORY DISEASES” (priority 2018, published 2026)
Bridge positions count the residues as written; N and C are the ends. Square brackets hold non-standard residues; d marks the D form. Peptide text beside a SMILES is read from it. Trp(7-Me) = Cc1cccc2c(C[C@H](N)C(=O)O)c[nH]c12; 2Nal = N[C@@H](Cc1ccc2ccccc2c1)C(=O)O; AEF = NCCOc1ccc(C[C@H](N)C(=O)O)cc1; Cit = NC(=O)NCCC[C@H](N)C(=O)O; αMeL = CC(C)C[C@](C)(N)C(=O)O; Pen = CC(C)(S)[C@H](N)C(=O)O; αMeK = C[C@](N)(CCCCN)C(=O)O; Aib = CC(C)(N)C(=O)O; βAla = NCCC(=O)O

Columns and labels:
IL-23R = molecular target: T1, IL-23R (Homo sapiens, UniProt Q5VWK5); experiment: DB cells IL23R pSTAT3 cell assay (pStat3 HTRF); type: cell-based; settings: Table E3; DB cells, IL-23 0.5 nM, 30 minutes at 37° C.; read-out: pStat3 HTRF (IC50)
T1 sequence (Q5VWK5 24-629): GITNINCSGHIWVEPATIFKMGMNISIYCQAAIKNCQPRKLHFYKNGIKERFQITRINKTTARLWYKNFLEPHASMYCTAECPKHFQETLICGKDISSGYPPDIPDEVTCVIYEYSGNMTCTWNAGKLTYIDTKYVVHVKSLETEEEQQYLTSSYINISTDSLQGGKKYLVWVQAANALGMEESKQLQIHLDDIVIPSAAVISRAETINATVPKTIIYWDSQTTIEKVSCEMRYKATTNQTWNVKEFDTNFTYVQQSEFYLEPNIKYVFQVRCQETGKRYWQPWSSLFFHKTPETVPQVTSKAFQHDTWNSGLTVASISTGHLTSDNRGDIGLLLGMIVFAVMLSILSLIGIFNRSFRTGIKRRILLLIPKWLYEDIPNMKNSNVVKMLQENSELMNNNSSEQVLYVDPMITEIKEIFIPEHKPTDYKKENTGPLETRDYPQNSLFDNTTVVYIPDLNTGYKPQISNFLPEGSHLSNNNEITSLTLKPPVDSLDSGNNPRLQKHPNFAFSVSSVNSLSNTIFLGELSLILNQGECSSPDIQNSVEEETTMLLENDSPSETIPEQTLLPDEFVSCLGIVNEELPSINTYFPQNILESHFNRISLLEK
How it was run: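 DB cells (5×10E5/well, RPMI-1640 + 10% FBS) stimulated with 0.5 nM final IL-23 plus serially diluted test peptides for 30 min at 37 °C, 5% CO2. Phospho-STAT3 (Tyr705) in lysates measured by HTRF using a two-plate protocol.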

in vitro [1] = settings: human, 20% fecal homogenate (supernatant), anaerobic, pH 6.8
in vitro [2] = settings: both, SD, rat
NK cells = experiment: NK cell based assay (IL-23/IL-18-induced IFNγ, Quantikine ELISA); settings: human primary NK cells, IL-23 at EC50 to EC75 + IL-18 10 ng/mL, IFNγ after 20 to 24 hours
Protocol: killer (NK) cells, purified from human peripheral blood of healthy donors by negative selection (Miltenyi Biotech, Cat #130-092-657), were cultured in complete media (RPMI 1640 containing […], L-glutamine and penicillin-streptomycin) in the presence of IL-2 (RnD, Cat #202-IL-010/CF) at 25 ng/mL. After 7 days, cells were centrifuged, and resuspended in complete media at IE6 cells/mL. […] After 20 to 24 hours, IFNγ in the supernatant was quantified using Quantikine ELISA (RnD, Cat #DIF50).

in vitro [3] = type: in vitro ADME; design: half-life: dose or concentration left out as unconfirmed; settings: simulated intestinal fluid (SIF) with pancreatin, pH 6.8, 37° C., § matrix is 100 fold dilution of standard SIF concentration, read-out: SIF t½ (converted)
Protocol: SIF was prepared by adding 6.8 g of monobasic potassium phosphate and 10.0 g of pancreatin to 1.0 L of water. After dissolution, the pH was adjusted to 6.8 using NaOH. DMSO stocks (2 mM) were first prepared for the test compounds. Aliquots of the DMSO solutions were dosed into 6 individual tubes, each containing 0.5 mL of SIF, which is pre-warmed to 37° C. The final test compound concentration was 20 M. The vials were kept in a benchtop Thermomixer® for the duration of the experiment. At each timepoint (0, 5, 10, 20, 40, 60, or 360 minutes or 24 hours), 1.0 mL of acetonitrile containing 1% formic acid was added to one vial to terminate the reaction. Samples were stored at 4° C. until the end of the experiment. After the final timepoint is sampled, the tubes were mixed and then centrifuged at 3,000 rpm for 10 minutes. Aliquots of the supernatant were removed, diluted 1:1 into distilled water containing internal standard, and analyzed by LCMS/MS. Percent remaining at each timepoint was calculated based on the peak area response ratio of test to compound to internal standard. Time 0 was set to 100%, and all later timepoints were calculated relative to time 0. Half-lives were calculated by fitting to a first-order exponential decay equation using Graphpad.

in vitro [4] = settings: cynomolgus monkey, 20% fecal homogenate (supernatant), anaerobic, pH 6.8
Protocol: Fecal homogenate (20%) was prepared by adding 4 mL of growth medium (1 liter contains 2 g peptone water powder, 2 g yeast extract, 0.1 g NaCl, 0.04 g KH2PO4, 0.01 g CaCl2·6H2O, 0.01 g MgSO4·7H2O, 2 mL Tween 80, 0.5 g bile salts, 0.5 g L-cysteine HCl, 2 g NaHCO3, and 10 μL Vitamin K, pH adjusted to 6.8, and sterilized by filtration through a 0.22 μm filter) to every gram of feces (pooled freshly collected human or cynomolgus monkey feces). The suspension was vortexed to break up large clumps, and homogenized using a bead mill homogenizer. Centrifuged the homogenate at 2800×g for 15 min. The supernatant is taken out and used for incubations. DMSO stocks (10 mM) were first prepared for the test compounds. Incubations were performed in an anaerobic chamber conditioned at 37° C. Aliquots of the DMSO solutions were dosed into 1.0 mL aliquots of 20% fecal homogenate, which are pre-warmed to 37° C. The final test compound concentration was 20 μM. At each timepoint (0, 20 min, 1, 3, 6, or 24 hours), 100 μL aliquot of each incubation mixture is taken out and added to separate tubes containing 300 μL of 50% acetonitrile/50% methanol and an internal standard to terminate the reaction. Samples were taken out of the anaerobic chamber and stored at 4° C. until the end of the experiment. After the final timepoint is sampled, the tubes were mixed and then centrifuged at 3,000 rpm for 10 minutes. Aliquots of the supernatant were removed, diluted 1:1 into distilled water containing 0.1% formic acid, and analyzed by LC/MS/MS. Percent remaining at each timepoint was calculated based on the peak area response ratio of test to compound to internal standard. Time 0 was set to 100%, and all later timepoints were calculated relative to time 0. Half-lives were calculated by fitting to a first-order exponential decay equation using Graphpad or Excel.

SMILES	IC50 (IL-23R) [nM]	half-life at 20 μM (in vitro [1]) [h]	half-life at 20 μM (in vitro [2]; plasma (EDTA)) [h]	IC50 (NK cells) [nM]	half-life (in vitro [3]) [h]	half-life at 20 μM (in vitro [4]) [h]	half-life at 20 μM (in vitro [2]; plasma (EDTA, pooled)) [h]
CC(=O)NCCCC[C@@H]1NC(=O)[C@H](Cc2c[nH]c3c(C)cccc23)NC(=O)[C@H]([C@@H](C)O)NC(=O)[C@H](CC(N)=O)NC(=O)[C@@H](NC(C)=O)C(C)(C)SSC(C)(C)[C@@H](C(=O)N[C@@H](Cc2ccc(OCCN)cc2)C(=O)N[C@@H](Cc2ccc3ccccc3c2)C(=O)N[C@@](C)(CCCCN)C(=O)N[C@@H](CCC(=O)O)C(=O)NCCC(=O)NCCC(N)=O)NC1=O [compound 273]	1 to 10	> 24	> 24	< 10	8	12	
CC(=O)NCCCC[C@H](NC(=O)[C@](C)(CC(C)C)NC(=O)[C@H](Cc1ccc2ccccc2c1)NC(=O)[C@H](Cc1ccc(OCCN)cc1)NC(=O)[C@H]1NC(=O)[C@H](CCC(N)=O)NC(=O)[C@H](Cc2c[nH]c3c(C)cccc23)NC(=O)[C@H]([C@@H](C)O)NC(=O)[C@H](CC(N)=O)NC(=O)[C@@H](NC(C)=O)C(C)(C)SSC1(C)C)C(=O)N[C@H](C(=O)NCCC(N)=O)[C@@H](C)O [compound 217]	1 to 10	> 24	2	11 to 100		> 24	
CC(=O)NCCCC[C@H](NC(=O)[C@](C)(CCCCN)NC(=O)[C@H](Cc1ccc2ccccc2c1)NC(=O)[C@H](Cc1ccc(OCCN)cc1)NC(=O)[C@H]1NC(=O)[C@H](CCC(N)=O)NC(=O)[C@H](Cc2c[nH]c3c(C)cccc23)NC(=O)[C@H]([C@@H](C)O)NC(=O)[C@H](CCCNC(N)=O)NC(=O)[C@@H](NC(C)=O)C(C)(C)SSC1(C)C)C(=O)N[C@@H](CC(N)=O)C(=O)NCCC(N)=O [compound 238] (Ac-[Pen][Cit]T[Trp(7-Me)]Q[Pen][AEF][2Nal][αMeK]K(Ac)N[βAla]-NH2; disulfide 1-6)	1 to 10	> 24	> 24	< 10		7	
CC(=O)NCCCC[C@H](NC(=O)[C@](C)(CC(C)C)NC(=O)[C@H](Cc1ccc2ccccc2c1)NC(=O)[C@H](Cc1ccc(OCCN)cc1)NC(=O)[C@H]1NC(=O)[C@H](CCC(N)=O)NC(=O)[C@H](Cc2c[nH]c3c(C)cccc23)NC(=O)[C@H]([C@@H](C)O)NC(=O)[C@H](CC(N)=O)NC(=O)[C@@H](NC(C)=O)C(C)(C)SSC1(C)C)C(=O)N[C@@H](CC(C)C)C(=O)NCCC(N)=O [compound 208]	1 to 10	> 24	2	< 10		> 24	
CC[C@H](C)[C@H](NC(=O)[C@H](CCCCNC(C)=O)NC(=O)[C@](C)(CC(C)C)NC(=O)[C@H](Cc1ccc2ccccc2c1)NC(=O)[C@H](Cc1ccc(OCCN)cc1)NC(=O)[C@H]1NC(=O)[C@H](CCC(N)=O)NC(=O)[C@H](Cc2c[nH]c3c(C)cccc23)NC(=O)[C@H]([C@@H](C)O)NC(=O)[C@H](CC(N)=O)NC(=O)[C@@H](NC(C)=O)C(C)(C)SSC1(C)C)C(=O)NCCC(N)=O [compound 216]	10 to 100	> 24	13	101 to 500		> 24	
CC(=O)NCCCC[C@H](NC(=O)[C@](C)(CCCN)NC(=O)[C@H](Cc1ccc2ccccc2c1)NC(=O)[C@H](Cc1ccc(OCCN)cc1)NC(=O)[C@H]1NC(=O)[C@H](CCC(N)=O)NC(=O)[C@H](Cc2c[nH]c3c(C)cccc23)NC(=O)[C@H]([C@@H](C)O)NC(=O)[C@H](CC(N)=O)NC(=O)[C@@H](NC(C)=O)C(C)(C)SSC1(C)C)C(=O)N[C@@H](CC(N)=O)C(=O)NCCC(N)=O [compound 278]	< 1	> 24	> 24	< 10	19	15	
CC(=O)NCCCC[C@H](NC(=O)[C@](C)(CCCCN)NC(=O)[C@H](Cc1ccc2ccccc2c1)NC(=O)[C@H](Cc1ccc(OCCN)cc1)NC(=O)[C@H]1NC(=O)[C@H](CCC(N)=O)NC(=O)[C@H](Cc2cn(C)c3ccccc23)NC(=O)[C@H]([C@@H](C)O)NC(=O)[C@H](CC(N)=O)NC(=O)[C@@H](NC(C)=O)C(C)(C)SSC1(C)C)C(=O)N[C@@H](CC(N)=O)C(=O)NCCC(N)=O [compound 232]	1 to 10	> 24	> 24	< 10		10	
CC(=O)NCCCC[C@H](NC(=O)[C@](C)(CCCCN)NC(=O)[C@H](Cc1ccc2ccccc2c1)NC(=O)[C@H](Cc1ccc(OCCN)cc1)NC(=O)[C@H]1NC(=O)[C@](C)(CC(C)C)NC(=O)[C@H](Cc2c[nH]c3c(C)cccc23)NC(=O)[C@H]([C@@H](C)O)NC(=O)[C@H](CC(N)=O)NC(=O)[C@@H](NC(C)=O)C(C)(C)SSC1(C)C)C(=O)N[C@@H](CC(N)=O)C(=O)NCCC(N)=O [compound 235] (Ac-[Pen]NT[Trp(7-Me)][αMeL][Pen][AEF][2Nal][αMeK]K(Ac)N[βAla]-NH2; disulfide 1-6)	1 to 10	> 24	5	11 to 100		> 24	
CC(=O)NCCCC[C@@H]1NC(=O)[C@H](Cc2c[nH]c3c(C)cccc23)NC(=O)[C@H]([C@@H](C)O)NC(=O)[C@H](CC(N)=O)NC(=O)[C@@H](NC(C)=O)C(C)(C)SSC(C)(C)[C@@H](C(=O)N[C@@H](Cc2ccc(OCCN)cc2)C(=O)N[C@@H](Cc2ccc3ccccc3c2)C(=O)N[C@@](C)(CCCCN)C(=O)N[C@@H](CCCCNC(C)=O)C(=O)N[C@@H](CO)C(=O)NCCC(N)=O)NC1=O [compound 271]	1 to 10	> 24	> 24	< 10	22	> 24	
CC(=O)NCCCC[C@@H]1NC(=O)[C@H](Cc2c[nH]c3c(C)cccc23)NC(=O)[C@H]([C@@H](C)O)NC(=O)[C@H](CC(N)=O)NC(=O)[C@@H](NC(C)=O)C(C)(C)SSC(C)(C)[C@@H](C(=O)N[C@@H](Cc2ccc(OCCN)cc2)C(=O)N[C@@H](Cc2ccc3ccccc3c2)C(=O)N[C@@](C)(CCCCN)C(=O)N[C@@H](CCCCNC(C)=O)C(=O)N[C@@H](CC(N)=O)C(=O)N[C@H](CCCCN)C(N)=O)NC1=O [SEQ ID No. 252, Ac-[Pen]-NT-[W(7-Me)]-[Lys(Ac)]-[Pen]-Phe[4-(2-aminoethoxy)]-[2-Nal]-[a-MeLys]-[Lys(Ac)]-N-[(D)Lys]-NH2]	< 1	> 24		< 10		> 24	> 24
CC(=O)NCCCC[C@H](NC(=O)[C@](C)(CCCCN)NC(=O)[C@H](Cc1ccc2ccccc2c1)NC(=O)[C@H](Cc1ccc(OCCN)cc1)NC(=O)[C@H]1NC(=O)[C@H](CCCNC(N)=O)NC(=O)[C@H](Cc2c[nH]c3c(C)cccc23)NC(=O)[C@H]([C@@H](C)O)NC(=O)[C@H](CC(N)=O)NC(=O)[C@@H](NC(C)=O)C(C)(C)SSC1(C)C)C(=O)N[C@@H](CC(N)=O)C(=O)NC(C)(C)C(N)=O [compound 264] (Ac-[Pen]NT[Trp(7-Me)][Cit][Pen][AEF][2Nal][αMeK]K(Ac)N[Aib]-NH2; disulfide 1-6)	< 1	> 24	> 24	< 10	18	> 24	
CC(=O)N[C@@H]1C(=O)N[C@@H](CC(N)=O)C(=O)N[C@@H]([C@@H](C)O)C(=O)N[C@@H](Cc2c[nH]c3c(C)cccc23)C(=O)N[C@@H](CCC(N)=O)C(=O)N[C@H](C(=O)N[C@@H](Cc2ccc(OCCN)cc2)C(=O)N[C@@H](Cc2ccc3ccccc3c2)C(=O)N[C@@](C)(CCCCN)C(=O)NC(C)(C)C(=O)N[C@@H](CC(N)=O)C(=O)NCCC(N)=O)C(C)(C)SSC1(C)C [compound 236]	1 to 10	> 24	> 19.8	< 10		> 24	
